These compounds were tested against T1, human TLR9 (Homo sapiens, UniProt Q9NR96) (assay: HEK293-Blue-hTLR-9 cells assay (SEAP reporter, ODN2006 stimulation)). Settings: HEK293-Blue-hTLR9 cells, ODN2006 ligand, 20 hrs incubation.
T1 sequence (Q9NR96 26-1032): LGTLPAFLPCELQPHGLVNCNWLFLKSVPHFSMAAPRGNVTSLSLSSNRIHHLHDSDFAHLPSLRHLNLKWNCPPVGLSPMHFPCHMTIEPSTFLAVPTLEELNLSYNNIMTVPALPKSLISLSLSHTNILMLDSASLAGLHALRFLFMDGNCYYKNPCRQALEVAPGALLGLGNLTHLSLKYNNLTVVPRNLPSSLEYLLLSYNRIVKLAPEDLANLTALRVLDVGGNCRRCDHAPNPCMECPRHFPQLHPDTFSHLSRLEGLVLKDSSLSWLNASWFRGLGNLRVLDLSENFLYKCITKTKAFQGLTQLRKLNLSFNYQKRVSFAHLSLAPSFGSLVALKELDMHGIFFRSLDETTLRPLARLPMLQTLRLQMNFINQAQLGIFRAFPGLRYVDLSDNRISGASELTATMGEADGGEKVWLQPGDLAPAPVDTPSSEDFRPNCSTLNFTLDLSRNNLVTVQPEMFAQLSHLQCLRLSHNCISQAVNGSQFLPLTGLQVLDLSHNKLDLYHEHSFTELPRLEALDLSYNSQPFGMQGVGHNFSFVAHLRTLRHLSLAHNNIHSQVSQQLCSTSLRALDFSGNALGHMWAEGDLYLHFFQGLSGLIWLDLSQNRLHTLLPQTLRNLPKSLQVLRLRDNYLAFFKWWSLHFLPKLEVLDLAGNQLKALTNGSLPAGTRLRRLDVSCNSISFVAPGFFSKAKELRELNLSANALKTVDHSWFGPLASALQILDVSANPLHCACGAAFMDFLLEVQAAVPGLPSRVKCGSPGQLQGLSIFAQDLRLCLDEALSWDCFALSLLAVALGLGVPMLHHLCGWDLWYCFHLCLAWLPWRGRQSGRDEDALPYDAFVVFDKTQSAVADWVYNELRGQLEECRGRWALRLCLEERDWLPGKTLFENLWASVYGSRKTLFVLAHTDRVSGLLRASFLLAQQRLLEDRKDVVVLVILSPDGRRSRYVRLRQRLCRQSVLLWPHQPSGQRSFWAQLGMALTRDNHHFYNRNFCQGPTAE
Type: cell-based
Excerpt: A stable HEK293-Blue-hTLR-9 cell line was purchased from InvivoGen (Cat. #: hkb-htlr9, San Diego, Calif., USA). These cells were originally designed for studying the stimulation of human TLR9 by monitoring the activation of NF-κB. A SEAP (secreted embryonic alkaline phosphatase) reporter gene was placed under the control of the IFN-β minimal promoter fused to five NF-κB and AP-1-binding sites. The SEAP was induced by activating NF-κB and AP-1 via stimulating HEK-Blue hTLR9 cells with TLR9 ligands. Therefore the reporter expression was declined by TLR9 antagonist under the stimulation of a ligand, such as ODN2006 (Cat. #: tlr1-2006-1, Invivogen, San Diego, Calif., USA), for incubation of 20 hrs. The cell culture supernatant SEAP reporter activity was determined using QUANTI-Blue™ kit (Cat. #: rep-qb1, Invivogen, San Diego, Calif., USA) at a wavelength of 640 nm, a detection medium that turns purple or blue in the presence of alkaline phosphatase.
HEK293-Blue-hTLR9 cells were incubated at a density of 250,000˜450,000 cells/mL in a volume of 170 μL in a 96-well plate in Dulbecco's Modified Eagle's medium (DMEM) containing 4.5 g/L glucose, 50 U/mL penicillin, […], […], 2 mM L-glutamine, 10% (v/v) heat-inactivated fetal bovine serum with addition of 20 μL test compound in a serial dilution in the presence of final DMSO at 1% and 10 μL of 20 uM ODN2006 in above DMEM, perform incubation under 37° C. in a CO2 incubator for 20 hrs. Then 20 μL of the supernatant from each well was incubated with 180 μL Quanti-blue substrate solution at 37° C. for 2 hrs and the absorbance was read at 620-655 nm using a spectrophotorneter. The signalling pathway that TLR9 activation leads to downstream NF-κB activation has been widely accepted, and therefore similar reporter assay was modified for evaluating TLR9 antagonist.

Row | IC50 [nM] | SMILES
1 | 180 | C[C@@H]1CN(c2ccc(C#N)n3nccc23)C[C@H](CN2CC3CNCC3C2)O1 (stereo partly drawn) [Example 22, 4-[(2S,6R)-2-(2,3,3a,4,6,6a-hexahydro-1H-pyrrolo[3,4-c]pyrrol-5-ylmethyl)-6-methyl-morpholin-4-yl]pyrazolo[1,5-a]pyridine-7-carbonitrile]
2 | 2200 | C[C@@H]1CN(c2ccc(C#N)n3nccc23)C[C@H](CN2CCCC3NCCCC32)O1 (stereo partly drawn) [Example 64, 4-[(2S,6R)-2-(3,4,4a,5,6,7,8,8a-octahydro-2H-1,5-naphthyridin-1-ylmethyl)-6-methyl-morpholin-4-yl]pyrazolo[1,5-a]pyridine-7-carbonitrile]
3 | 24000 | CC1CNCCN1C[C@H]1CN(c2ccc(C#N)n3nccc23)C[C@@H](C)O1 (single isomer, unassigned) [Example 50B]
4 | 2400 | C[C@@H]1CN(c2ccc(C#N)n3nccc23)C[C@H](CN2CC[C@@H]3CNCC32)O1 (stereo partly drawn) [Example 62, 4-[(2R,6S)-2-methyl-6-[[cis-(3aR,6aR)-3,3a,4,5,6,6a-hexahydro-2H-pyrrolo[3,4-b]pyrrol-1-yl]methyl]morpholin-4-yl]pyrazolo[1,5-a]pyridine-7-carbonitrile]
5 | 65 | C[C@@H]1CN(c2ccc(C#N)n3nccc23)C[C@H](CN2CCC3(CCCNC3)CC2)O1 [Example 27, 4-[(2S,6R)-2-(2,9-diazaspiro[5.5]undecan-9-ylmethyl)-6-methyl-morpholin-4-yl]pyrazolo[1,5-a]pyridine-7-carbonitrile]
6 | 96 | C[C@@H]1CN(c2ccc(C#N)n3nccc23)C[C@H](CN2CCC(N3CCNCC3)CC2)O1 [Example 39, 4-[(2R,6S)-2-methyl-6-[(4-piperazin-1-yl-1-piperidyl)methyl]morpholin-4-yl]pyrazolo[1,5-a]pyridine-7-carbonitrile]
7 | 520 | C[C@@H]1CN(c2ccc(C#N)n3nccc23)C[C@H](CN2CC3CCC(C2)C3N)O1 (stereo partly drawn) [Example 36, 4-[(2S,6R)-2-[(8-amino-3-azabicyclo[3.2.1]octan-3-yl)methyl]-6-methyl-morpholin-4-yl]pyrazolo[1,5-a]pyridine-7-carbonitrile]
8 | 89 | C[C@@H]1CN(c2ccc(C#N)n3nccc23)C[C@H](CN2CCC3(CCNCC3)C2)O1 [Example 18, 4-[(2S,6R)-2-(2,8-diazaspiro[4.5]decan-2-ylmethyl)-6-methyl-morpholin-4-yl]pyrazolo[1,5-a]pyridine-7-carbonitrile]
9 | 180 | C[C@@H]1CN(c2ccc(C#N)n3nccc23)C[C@H](CN2CCC(N)CC2)O1 [Example 17, 4-[(2S,6R)-2-[(4-amino-1-piperidyl)methyl]-6-methyl-morpholin-4-yl]pyrazolo[1,5-a]pyridine-7-carbonitrile]
10 | 250 | C[C@@H]1CN(c2ccc(C#N)n3nccc23)C[C@H](CN2CCC3(CCN3)CC2)O1 [Example 48, 4-[(2S,6R)-2-(1,7-diazaspiro[3.5]nonan-7-ylmethyl)-6-methyl-morpholin-4-yl]pyrazolo[1,5-a]pyridine-7-carbonitrile]
11 | 1900 | C[C@@H]1CN(c2ccc(C#N)n3nccc23)C[C@H](CN2CCN[C@H](c3ccccc3)C2)O1 [Example 38, 4-[(2R,6S)-2-methyl-6-[[(3R)-3-phenylpiperazin-1-yl]methyl]morpholin-4-yl]pyrazolo[1,5-a]pyridine-7-carbonitrile]
12 | 12000 | C[C@@H]1CN(c2ccc(C#N)n3nccc23)C[C@H](CN2CC3(CCNC3)CC2=O)O1 (stereo partly drawn) [Example 20, 4-[(2R,6R)-2-methyl-6-[(3-oxo-2,7-diazaspiro[4.4]nonan-2-yl)methyl]morpholin-4-yl]pyrazolo[1,5-a]pyridine-7-carbonitrile]
13 | 23000 | C[C@@H]1CN(c2ccc(C#N)n3nccc23)C[C@H](CN2CCN(C)CC2)O1 [Example 15, 4-[(2R,6S)-2-methyl-6-[(4-methylpiperazin-1-yl)methyl]morpholin-4-yl]pyrazolo[1,5-a]pyridine-7-carbonitrile]
14 | 280 | C[C@@H]1CN(c2ccc(C#N)n3nccc23)C[C@H](CN2CCC(N3CCCCCC3)CC2)O1 [Example 4, 4-[(2S,6R)-2-[[4-(azepan-1-yl)-1-piperidyl]methyl]-6-methyl-morpholin-4-yl]pyrazolo[1,5-a]pyridine-7-carbonitrile]
15 | 110 | C[C@@H]1CN(c2ccc(C#N)n3nccc23)C[C@H](CN2CCCC3(CCNC3)C2)O1 (stereo partly drawn) [Example 44, 4-[(2S,6R)-2-(2,7-diazaspiro[4.5]decan-7-ylmethyl)-6-methyl-morpholin-4-yl]pyrazolo[1,5-a]pyridine-7-carbonitrile]
16 | 250 | C[C@@H]1CN(c2ccc(C#N)n3nccc23)C[C@H](CN2CCCC3(CCCNC3)C2)O1 (stereo partly drawn) [Example 23, 4-[(2S,6R)-2-(2,8-diazaspiro[5.5]undecan-2-ylmethyl)-6-methyl-morpholin-4-yl]pyrazolo[1,5-a]pyridine-7-carbonitrile]
17 | 110 | C[C@@H]1CN(c2ccc(C#N)n3ncc(F)c23)C[C@H](CN2CCCC3(CCNC3)C2)O1 (stereo partly drawn) [Example 68, 3-fluoro-4-[(2S,6R)-2-(2,7-diazaspiro[4.5]decan-7-ylmethyl)-6-methyl-morpholin-4-yl]pyrazolo[1,5-a]pyridine-7-carbonitrile]
18 | 970 | C[C@@H]1CN(c2ccc(C#N)n3nccc23)C[C@H](CN2CC3CCCNC3C2)O1 (stereo partly drawn) [Example 45, 4-[(2S,6R)-2-(1,2,3,4,4a,5,7,7a-octahydropyrrolo[3,4-b]pyridin-6-ylmethyl)-6-methyl-morpholin-4-yl]pyrazolo[1,5-a]pyridine-7-carbonitrile]
19 | 130 | C[C@@H]1CN(c2ccc(C#N)n3ncc(F)c23)C[C@H](CN2CCC3(CCCNC3)C2)O1 (stereo partly drawn) [Example 69, 3-fluoro-4-[(2S,6R)-2-(2,9-diazaspiro[4.5]decan-2-ylmethyl)-6-methyl-morpholin-4-yl]pyrazolo[1,5-a]pyridine-7-carbonitrile]
20 | 100 | C[C@@H]1CN(c2ccc(C#N)n3nccc23)C[C@H](CN2CC3(CCNCC3)C2)O1 [Example 24, 4-[(2S,6R)-2-(2,7-diazaspiro[3.5]nonan-2-ylmethyl)-6-methyl-morpholin-4-yl]pyrazolo[1,5-a]pyridine-7-carbonitrile]
21 | 220 | C[C@@H]1CN(c2ccc(C#N)n3nccc23)C[C@H](CN2CCC(C)(N)CC2)O1 [Example 29, 4-[(2S,6R)-2-[(4-amino-4-methyl-1-piperidyl)methyl]-6-methyl-morpholin-4-yl]pyrazolo[1,5-a]pyridine-7-carbonitrile]
22 | 87 | C[C@@H]1CN(c2ccc(C#N)n3ncc(F)c23)C[C@H](CN2CCCC3(CCNCC3)C2)O1 [Example 67, 4-[(2S,6R)-2-(2,9-diazaspiro[5.5]undecan-2-ylmethyl)-6-methyl-morpholin-4-yl]-3-fluoro-pyrazolo[1,5-a]pyridine-7-carbonitrile]
23 | 25000 | C[C@@H]1CN(c2ccc(C#N)n3nccc23)C[C@H](CN2CCC23CNC3)O1 [Example 55, 4-[(2S,6R)-2-(1,6-diazaspiro[3.3]heptan-1-ylmethyl)-6-methyl-morpholin-4-yl]pyrazolo[1,5-a]pyridine-7-carbonitrile]
24 | 3500 | C[C@@H]1CN(c2ccc(C#N)n3nccc23)C[C@H](CN2CCC3(CN(C)CCO3)C2)O1 (stereo partly drawn) [Example 76, 4-[(2R,6S)-2-methyl-6-[(9-methyl-6-oxa-2,9-diazaspiro[4.5]decan-2-yl)methyl]morpholin-4-yl]pyrazolo[1,5-a]pyridine-7-carbonitrile]

Source: US20220112187A1, “PYRAZOLOPYRIDINE AMINE COMPOUNDS FOR THE TREATMENT OF AUTOIMMUNE DISEASE” (Hoffmann-La Roche Inc., priority 2018, published 2022)
